Data on four molecules can be found in US20220249438A1, “CARBOCYANINE COMPOUNDS FOR TARGETING MITOCHONDRIA AND ERADICATING CANCER STEM CELLS” (LUNELLA BIOTECH, INC., priority 2019, published 2022).

Each structure is given as a SMILES string. Read-outs that look alike come from different tables or passages of the source.

Series [1] concerns MCF7 cells. In words: Metabolic flux analysis (Seahorse XFe96, OCR/ECAR), MCF7. The format is cell-based, Human. As to conditions: for ECAR levels / basal and maximal OCR, ATP production: adherent MCF7; for basal and maximal OCR, ATP production: 16 hours, versus vehicle-alone control. The method, then: (§1) FIGS. 4A-4D show the metabolic flux analysis results in MCF7 cells, FIGS. 5A-5D show the metabolic flux analysis results in MDA-MB-231 cells, and FIGS. 6A-6D show the metabolic flux analysis results in MDA-MB-468 cells.
(§2) In addition to metabolic flux analysis, glycolytic function was analyzed at different concentrations of MTDR. This included extracellular acidification rate (ECAR) measurements, glycolysis, glycolytic capacity, and glycolytic reserve. FIGS. 7A-7D show the results of glycolytic function in MCF7 cells, including ECAR, glycolysis, glycolytic capacity, and glycolytic reserve, respectively. FIGS. 8A-8D show the results of glycolytic function in MDA-MB-231 cells, including ECAR, glycolysis, glycolytic capacity, and glycolytic reserve, respectively. FIGS. 9A-9D show the results of glycolytic function in MDA-MB-468 cells, including ECAR, glycolysis, glycolytic capacity, and glycolytic reserve, respectively.
To examine the effects of HITC and DDI on mitochondrial respiration and aerobic glycolysis, adherent MCF7 were treated with each compound, and then OCR and ECAR were measured. […] After treatment, the mitochondrial oxygen consumption rate (OCR) was measured using the Seahorse XFe96 analyzer. Data is expressed as percentage of OCR versus control. All data was normalized for cell number. Statistical analysis was conducted using one-way ANOVA.
(§3) Metabolic Flux Analysis: Extracellular acidification rates and oxygen consumption rates were analyzed using the Seahorse XFe96 analyzer (Agilent/Seahorse Bioscience, USA). Cells were maintained in DMEM supplemented with 10% FBS (fetal bovine serum), 2 mM GlutaMAX, and 1% Pen-Strep. Forty-thousand breast cancer cells were seeded per well, into XFe96-well cell culture plates, and incubated at 37° C. in a 5% CO2 humidified atmosphere. After 24-48 hours, MCF7 cells were washed in pre-warmed XF assay media, as previously described. ECAR and OCR measurements were normalized for cell protein content, by the SRB colorimetric assay. Data sets were analyzed using XFe96 software and Excel software.

In series [2] the test system is MCF7 cells. In words: 3D-mammosphere formation assay, MCF7. The format is cell-based, Human. An excerpt:
(§4) In order to assess the effects of MTDR on CSC propagation, the mammosphere assay was used as a functional readout of “stemness” and 3D anchorage-independent growth. As CSCs are highly-resistant to many types of cell stress, they can undergo anchorage-independent propagation, under low-attachment conditions. […] These “mammospheres” are highly enriched in CSCs and progenitor-like cells, and highly resemble the morula stage of embryonic development, a solid ball of cells without a hollow lumen. Under these culture conditions of non-attachment, the majority of epithelioid cancer cells die, via an unusual form of apoptosis, known as anoikis.
(§5) As a consequence, the growth of 3D spheroids provides functional culture conditions to select for a population of epithelioid CSCs, with EMT properties. As such this provides an ideal assay for identifying small molecules that can target the anchorage-independent growth of CSCs.
(§6) 3D-Mammosphere Formation Assay: A single cell suspension was prepared using enzymatic (1× Trypsin-EDTA, Sigma Aldrich, cat. #T3924), and manual disaggregation (25 gauge needle). Five thousand cells were plated with in mammosphere medium (DMEM-F12/B27/20 ng/ml EGF/PenStrep), under non-adherent conditions, in six wells plates coated with 2-hydroxyethylmethacrylate (poly-HEMA, Sigma, cat. #P3932). […]

The conditions of series [3]: in vivo; cited from earlier work.
The subject of series [4] is MDA-MB-231 cells. As to conditions: MDA-MB-231 monolayer. The method, then:
as §1, §2, §3

The test system of series [5] is MDA-MB-468 cells. The conditions noted are these: MDA-MB-468 monolayer. The method, then:
as §1, §2, §3

Series [6] deals with MDA-MB-231 cells. As to conditions: read-out: IC-50, cell viability; MDA-MB-231 monolayer; Hoechst 33342; 1 nM to 1 μM; FIG. 10. The procedure: (§7) A Hoechst-based viability assay was used to characterize the selectivity of MTDR for the preferential targeting of cancer cells. Briefly, MCF7, MDA-MB-231 and MDA-MB-468 cell monolayers were treated with MTDR, at concentrations ranging from 1 nM to 1 μM, for a period of one day. Cell viability was assessed using Hoechst 33342, a nuclear dye that stains DNA in live cells. The viability of normal human fibroblasts (hTERT-BJ1) treated with MTDR was also assessed in parallel. Quantitation was performed with a plate-reader.
(§8) MCF7, MDA-MB-231 and MDA-MB-468 cell monolayers were treated with MTDR for a period of 72 hours, and viability was assessed using Hoechst 33342, a nuclear dye that stains DNA in live cells. Effects of MTDR on the viability in normal human fibroblasts (hTERT-BJ1) were assessed in parallel.

Series [7] has as its system normal human fibroblasts (hTERT-BJ1). As to conditions: for IC50: hTERT-BJ1, Hoechst 33342. The procedure: as §7, §8
The subject of series [8] is MCF7 cells. The conditions noted are these: read-out: IC-50, cell viability; MCF7 monolayer; Hoechst 33342; 1 nM to 1 μM; FIG. 10. The method, then:
as §7, §8

Series [9] deals with MDA-MB-468 cells. As to conditions: read-out: IC-50, cell viability; MDA-MB-468 monolayer; Hoechst 33342; 1 nM to 1 μM; FIG. 10. The procedure:
as §7, §8

The subject of series [10] is MDA-MB-231 cells. The conditions noted are these: MDA-MB-231 mammosphere formation.
Description: as §4, §5, §6

The test system of series [11] is MDA-MB-468 cells. As to conditions: read-out: IC-50, 3D sphere formation.
Description: as §4, §5, §6

For `CCN1/C(=C/C=C/C=C/c2ccc3ccccc3[n+]2CC)C=Cc2ccccc21` [DDI], in the series on MCF7 cells [1], the ECAR levels result is listed as “did not affect”; the “basal and maximal OCR, ATP production” value is “did not affect”.

`CN1\C(=C/C=C/C=C/C=C/C2=[N+](C)c3ccccc3C2(C)C)C(C)(C)c2ccccc21` [HITC]: in the series on MCF7 cells [1], the ECAR levels result is “increased significantly, at 500 and 1000 nM”; the “basal and maximal OCR, ATP production” value is “significantly inhibited”.

Turning to `CCCN1/C(=C/C=C2\CCCC(/C=C/C3=[N+](CCC)c4ccccc4C3(C)C)=C2Cl)C(C)(C)c2ccccc21` [IR-780], the “concentrations with significant inhibition of CSC propagation (3D-mammosphere formation)” value in the series on MCF7 cells [2] (non-adherent MCF7, 1, 50, 100, 500, 1000 nM, five days) is on record as “not effective”. Further, the half-life in serum entry in [3] is “minutes to hour”.

Regarding `CN1C(=CC=CC=CC2=[N+](Cc3ccc(CCl)cc3)c3ccccc3C2(C)C)C(C)(C)c2ccccc21.[Cl-]` [MTDR, 1-{4-[(chloromethyl)phenyl]methyl}-3,3-dimethyl-2-[5-(1,3,3-trimethyl-1,3-dihydro-2H-indol-2-ylidene)penta-1,3-dien-1-yl]-3H-indolium chloride], the “concentration from which near complete inhibition of mitochondrial function and ATP production” value in the series with MDA-MB-231 cells [4] (OCR) was at least 500 nM; with MDA-MB-468 cells [5] (OCR), at least 500 nM; with MCF7 cells [1] (MCF7 monolayer, OCR), at least 500 nM. Further, the “concentration from which mild-to-moderate inhibition of glycolysis” value in the series on MDA-MB-231 cells [4] (no significant effect up to 100 nM) is given as at least 500 nM. For the same molecule, the “effect on glycolysis (ECAR)” value in the series on MDA-MB-468 cells [5] (up to 1 μM) is recorded as “no effect on glycolysis”; in the series with MCF7 cells [1] (MCF7 monolayer, up to 1 μM), “no effect on glycolysis”. Moreover, the IC50 in the series on MCF7 cells [2] (MCF7, MTDR 1 nM to 1,000 nM, 5 days, read-out: IC-50, 3D anchorage-independent growth (mammosphere formation)) is below 100 nM; in the series with MDA-MB-231 cells [6], 399 nM; in series [7] (read-out: IC-50, cell viability, 1 nM to 1 μM, FIG. 10), 468 nM; in series [7] (read-out: IC-50, normal cell viability, 72 hours), 1000 nM; in the series on MCF7 cells [8], 90.7 nM; in the series with MDA-MB-468 cells [9] it was 432 nM. Moreover, the IC50 in the series with MDA-MB-468 cells [11] was around 50 nM. For the same molecule, in series [7] (viability, 72 hours), the “potency and selectivity for breast cancer cells relative to normal fibroblasts” value worked out at 10 times. The “concentrations inhibiting anchorage-independent growth” value in the series with MDA-MB-231 cells [10] is “above 100 nM”.
